Values of other authors, collected in patent EP2387991A1, “Vitamin E succinate stabilized pharmaceutical compositions, methods for the preparation and the use thereof” (Adventrx Pharmaceuticals, Inc., priority 2006, dated 2007).

For `CC(=O)O[C@@]12CO[C@@H]1C[C@H](O)[C@@]1(C)C(=O)[C@H](O)C3=C(C)[C@@H](OC(=O)[C@H](O)[C@@H](NC(=O)OC(C)(C)C)c4ccccc4)C[C@@](O)([C@@H](OC(=O)c4ccccc4)[C@H]21)C3(C)C` [Docetaxel, (2R,3S)-N-carboxy-3-phenylisoserine, N-tert-butyl ester, 13-ester with 5β-20-epoxy-1,2α-,4,7β,10β,13α-hexahydroxytax-11-en-9-one 4-acetate 2-benzoate, trihydrate], the solubility in water is given as “practically insoluble”.
